Experiments:
NPC1 [1] = molecular target: T1, NPC1 (Cricetulus griseus, UniProt Q9JLG3); test: Cholesterol re-esterification (ACAT) assay measuring NPC1-mediated export of cholesterol from lysosomes in CHO-7 cells; format: cell-based; conditions: for cholesteryl [14C] oleate formed, Repeat 1 / cholesteryl [14C] oleate formed, Repeat 2: Fig. 2 source data; for cholesteryl [14C] oleate formed, Repeat 3 / cholesteryl [14C] oleate formed, Repeat 4: Supplementary Fig. 3 source data
T1 construct: CHO-7 cells in the medium are deprived of cholesterol to induce the LDL receptors biosynthesis; endogenous in cells; host or cells: CHO-7 cells
T1 sequence (Q9JLG3 23-1277): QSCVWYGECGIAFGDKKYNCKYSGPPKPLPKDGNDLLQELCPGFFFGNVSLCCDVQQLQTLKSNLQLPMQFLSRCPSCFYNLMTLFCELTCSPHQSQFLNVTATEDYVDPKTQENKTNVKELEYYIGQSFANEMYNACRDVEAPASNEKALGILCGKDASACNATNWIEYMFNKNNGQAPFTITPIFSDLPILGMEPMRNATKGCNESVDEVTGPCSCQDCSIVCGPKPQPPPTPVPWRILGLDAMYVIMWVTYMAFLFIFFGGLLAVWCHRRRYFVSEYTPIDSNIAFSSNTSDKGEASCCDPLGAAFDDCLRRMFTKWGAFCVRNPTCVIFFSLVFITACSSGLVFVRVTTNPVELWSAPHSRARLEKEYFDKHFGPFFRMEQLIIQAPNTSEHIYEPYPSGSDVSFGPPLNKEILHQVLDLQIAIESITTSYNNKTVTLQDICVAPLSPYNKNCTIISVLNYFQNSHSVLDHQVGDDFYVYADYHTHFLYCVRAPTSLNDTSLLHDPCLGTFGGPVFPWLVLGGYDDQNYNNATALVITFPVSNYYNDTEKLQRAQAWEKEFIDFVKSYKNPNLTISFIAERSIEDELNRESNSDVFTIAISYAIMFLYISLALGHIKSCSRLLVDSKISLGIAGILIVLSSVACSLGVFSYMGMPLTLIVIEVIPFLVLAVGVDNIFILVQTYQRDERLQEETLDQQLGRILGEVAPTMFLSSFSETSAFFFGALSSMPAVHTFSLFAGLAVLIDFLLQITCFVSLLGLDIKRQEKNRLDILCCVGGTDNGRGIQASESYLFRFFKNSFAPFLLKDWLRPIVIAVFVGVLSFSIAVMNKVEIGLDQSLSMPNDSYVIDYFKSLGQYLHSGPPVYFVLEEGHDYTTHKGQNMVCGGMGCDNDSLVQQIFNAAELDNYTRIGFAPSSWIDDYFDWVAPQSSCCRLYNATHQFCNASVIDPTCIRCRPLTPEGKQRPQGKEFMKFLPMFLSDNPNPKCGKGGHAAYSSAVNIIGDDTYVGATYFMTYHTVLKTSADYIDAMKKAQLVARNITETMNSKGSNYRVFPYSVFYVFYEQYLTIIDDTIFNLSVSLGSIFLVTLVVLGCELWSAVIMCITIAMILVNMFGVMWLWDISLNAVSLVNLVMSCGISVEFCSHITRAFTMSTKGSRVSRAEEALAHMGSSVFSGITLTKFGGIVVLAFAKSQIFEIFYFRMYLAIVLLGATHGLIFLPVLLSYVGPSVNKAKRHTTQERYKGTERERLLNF
From the text: Itraconazole has three chiral centers (Supplementary Fig. 2a). The pharmaceutical form contains four cis-stereoisomers in a 1:1:1:1 molar ratio (Supplementary Fig. 2a–d). To determine the activity of the cis-stereoisomers, the individual isomers were isolated and identified based on their optical rotation in chloroform following a previous report (Supplementary Fig. 2e)[26]. Then, they were separately tested in a cholesterol re-esterification assay used to measure NPC1-mediated export of cholesterol from lysosomes. Briefly, CHO-7 cells in the medium are deprived of cholesterol to induce the LDL receptors biosynthesis. The cells are then incubated with fetal calf serum (FCS) that contains LDL. The LDL-derived cholesterol will now be transported by functional NPC1 protein from the lysosome to the endoplasmic reticulum (ER). The acyl-CoA:cholesterol actyltransferase named ACAT can now re-esterify the cholesterol in the ER. Therefore, the cells were pulse-labeled with [^14C] oleate and we can measure the synthesis of cholesteroyl [^14C] oleate to evaluate the activity of NPC1 protein. Using this assay, we tested the ability of various itraconazole to inhibit NPC1 activity.
Fig. 2 ACAT activity of itraconazole and ketoconazole in CHO-7 cells. On day 0, CHO-7 cells were set up in medium A with 5% LPDS at 2.5 × 10^5 cells/well in 6-well dish. On day 2, cells were switched to medium A with 5% LPDS containing 50 µM sodium compactin and 50 µM sodium mevalonate. On day 3 the cells received fresh medium B containing compactin and mevalonate with various concentration compounds in the presence of 10% FCS containing lipoproteins. After incubation for 4 h at 37 °C, each cell monolayer was pulse-labeled for 2 h with 0.1 mM sodium [^14C] oleate (5792 dpm/nmol). The cells were then harvested for measurement of their content of cholesteryl [^14C] oleate and [^14C] triglycerides, as described in Methods. […] Itraconazole mixture, isomer A (Supplementary Fig. 2a), isomer B (Supplementary Fig. 2b) and isomer C (Supplementary Fig. 2c) were added at final concentrations of 0.3 μM. The isomer D (Supplementary Fig. 2d), I-Br and ketoconazole were added at final concentrations of 1 μM. The biological repeats are shown as individual values. Source data are provided as a Source Data file.
On day 0, cells were set up in medium A with 5% LPDS at 2.5 × 10^5 cells/well in six-well dish. On day 2, cells were switched to medium A with 5% LPDS containing 50 µM sodium compactin and 50 µM sodium mevalonate. On day 3 the cells received fresh medium B containing compactin and mevalonate with indicated concentration triazole compounds in the presence of 10% FCS containing lipoproteins. After incubation for 4 h at 37 °C, each cell monolayer was pulse-labeled for 2 h with 0.1 mM sodium [^14C] oleate (5792 dpm/nmol). The cells were then harvested for measurement of their content of cholesteryl [^14C] oleate and [^14C] triglycerides.
The rate of incorporation of [^14C] oleate into cholesteryl [^14C] oleate and [^14C] triglycerides by monolayers of NPC1^−/− cells and CHO-7 cells was measured as described previously. In brief, cells were switched to medium containing LPDS supplemented with compactin and mevolonate at 16 h before the experiments. On the day of the experiment, cells were incubated for 4 h with fresh medium containing FCS as a source of cholesterol-containing lipoproteins. Cells were then pulse –labeled for 2 h with 0.1 mM sodium [^14C] oleate. Cells were then washed, and the lipids were extracted in hexane:isopropanol (3:2, vol:vol), separated on a silica gel G thin-layer chromatogram (developed in heptane:ethylether:acetic acid, 90:30:1), and quantified by scintillation counting with the use of an internal standard for recovery.

[2] = system: NPC1-mediated cholesterol export; conditions: cited from earlier work
NPC1 [3] = molecular target: T1, NPC1; conditions: cultured cells; cited from earlier work

SMILES: CCC(C)n1ncn(-c2ccc(N3CCN(c4ccc(OCC5COC(Cn6cncn6)(c6ccc(Cl)cc6Cl)O5)cc4)CC3)cc2)c1=O (centres unmarked) [Itra-A]
- cholesteryl [14C] oleate formed, Repeat 1 (NPC1 [1]; 0.01 uM compound): 3.345 nanomoles formed per hour per milligram cell protein
- cholesteryl [14C] oleate formed, Repeat 2 (NPC1 [1]; 0.01 uM compound): 3.639 nanomoles formed per hour per milligram cell protein
- cholesteryl [14C] oleate formed, Repeat 3 (NPC1 [1]; 0.01 uM compound): 4.944 nanomoles formed per hour per milligram cell protein
- cholesteryl [14C] oleate formed, Repeat 4 (NPC1 [1]; 0.01 uM compound): 4.771 nanomoles formed per hour per milligram cell protein
- cholesteryl [14C] oleate formed, Repeat 1 (NPC1 [1]; 0.03 uM compound): 2.117 nanomoles formed per hour per milligram cell protein
- cholesteryl [14C] oleate formed, Repeat 2 (NPC1 [1]; 0.03 uM compound): 3.138 nanomoles formed per hour per milligram cell protein
- cholesteryl [14C] oleate formed, Repeat 3 (NPC1 [1]; 0.03 uM compound): 2.06 nanomoles formed per hour per milligram cell protein
- cholesteryl [14C] oleate formed, Repeat 4 (NPC1 [1]; 0.03 uM compound): 3.899 nanomoles formed per hour per milligram cell protein
- cholesteryl [14C] oleate formed, Repeat 1 (NPC1 [1]; 0.06 uM compound): 1.347 nanomoles formed per hour per milligram cell protein
- cholesteryl [14C] oleate formed, Repeat 2 (NPC1 [1]; 0.06 uM compound): 1.367 nanomoles formed per hour per milligram cell protein
- cholesteryl [14C] oleate formed, Repeat 3 (NPC1 [1]; 0.06 uM compound): 2.476 nanomoles formed per hour per milligram cell protein
- cholesteryl [14C] oleate formed, Repeat 4 (NPC1 [1]; 0.06 uM compound): 3.208 nanomoles formed per hour per milligram cell protein
- cholesteryl [14C] oleate formed, Repeat 1 (NPC1 [1]; 0.1 uM compound): 0.6494 nanomoles formed per hour per milligram cell protein
- cholesteryl [14C] oleate formed, Repeat 2 (NPC1 [1]; 0.1 uM compound): 0.4243 nanomoles formed per hour per milligram cell protein
- cholesteryl [14C] oleate formed, Repeat 3 (NPC1 [1]; 0.1 uM compound): 0.5346 nanomoles formed per hour per milligram cell protein
- cholesteryl [14C] oleate formed, Repeat 4 (NPC1 [1]; 0.1 uM compound): 0.7537 nanomoles formed per hour per milligram cell protein
- cholesteryl [14C] oleate formed, Repeat 1 (NPC1 [1]; 0.3 uM compound): 0.1828 nanomoles formed per hour per milligram cell protein
- cholesteryl [14C] oleate formed, Repeat 2 (NPC1 [1]; 0.3 uM compound): 0.9513 nanomoles formed per hour per milligram cell protein
- cholesteryl [14C] oleate formed, Repeat 3 (NPC1 [1]; 0.3 uM compound): 0.009558 nanomoles formed per hour per milligram cell protein
- cholesteryl [14C] oleate formed, Repeat 4 (NPC1 [1]; 0.3 uM compound): 0.01486 nanomoles formed per hour per milligram cell protein
- IC50 (NPC1 [1]; read-out: IC50 (concentration at which each compound inhibited cholesterol esterification by 50%), 10% FCS, 4 h then 2 h [14C] oleate pulse): 20 nM

SMILES: CCN(CC)CCO[C@H]1CC[C@@]2(C)C(=CC[C@@H]3[C@@H]2CC[C@]2(C)C(=O)CC[C@@H]32)C1 [U18666A]
- inhibition of cholesterol export from lysosomes [2]: inhibit cholesterol export from lysosomes
- inhibition of P-X cross-linking to NPC1 (NPC1 [3]): inhibited

From PMC6952396, “Structural basis for itraconazole-mediated NPC1 inhibition” (Nature Communications, 2020)
